The values that follow come from patent publication US20160205934A1 (Rohm and Haas Company, priority 2013, published 2016).

The subject of one assay is Chlorella sp. ATCC 7516. Nature of the assay: Algal efficacy testing of dry paint films (modified ASTM 5589, 6-well plates). It counts as cell-based. The settings on record: 4 weeks; for inhibition at 1000 ppm: total conc 1000 ppm; for Total conc: total biocide conc in paint chosen as minimum inhibitory concentration (pass level 75% inhibition), or maximum tested where pass not reached. The protocol: (§1) The at least one phenylurea herbicide, (diuron, chlorotoluron, and/or isoproturon) was post added, as 33% active slurries, to a white, acrylic/silicone based outdoor paint free of biocides to give a total active ingredient concentration of 10000 and 1000 ppm respectively. These paints were then diluted with an antimicrobial free acrylic/silicone based paint and mixed to prepare targeted concentrations of antimicrobial compounds for the testing. The total biocides concentrations tested were 125, 250, 500, 1000, 2000 and 5000 ppm. After biocides addition or dilution, the paints were mixed 90 seconds with the horse power shaker (AXEL 75M3372/Agitateur SO-10MI) until uniformity was achieved. Paints containing different antimicrobial compounds at the same levels were mixed together in order to obtain the desired ratio of antimicrobial compounds. After one day, the paints were applied to Schleicher & Schuell filter paper at 280 μm wet film thickness and dried for 3 days at room temperature avoiding direct exposure to sunlight. Square discs (1.6 cm×1.6 cm) were cut out from each panel and were used as the substrate for algal efficacy tests. This sample size allowed for an agar border when the sample disc was placed into the well of the test plate.
(§2) Algal efficacy was tested according to modified ASTM 5589 which is a standard accelerated test method for determining resistance of various coatings (including paints) to algal defacement. To accommodate for high-throughput screening, this method was scaled down from petri dishes to 6-well plates. Bold Modified Basal Freshwater Nutrient Solution was used as growth medium. A single coated filter paper coupon was placed with a pair of sterile forceps at the center of the agar plug (on top) with the painted surface facing upwards. Algal inoculums were prepared by mixing equal concentrations (1×10^6 cfu/ml) and equal volumes of exponentially growing algae cultures.
(§3) Each well that contains a tested coupon was inoculated with 1750 μl of algal suspensions (1×10^6 cfu/ml) making sure that the whole surface (paint film as well as the agar surrounding it) was evenly covered. The plates were incubated at room temp (21° C.-25° C.) with cyclic exposure to light and dark phases, for a period of four weeks.
(§4) At the end of the four week incubation period, the samples were scored for percent inhibition regarding visible algal growth compared to the blank sample (0% inhibition).
(§5) The minimal targeted inhibition was set at 75%, meaning a coupon with at least 75% algal growth inhibition was considered as a pass.

The test system of assay [1] is Stichococcus bacillaris SAG 379-1a / CCAP 379/1a. The description is as above. It counts as cell-based. The conditions noted are these: for Total conc: total biocide conc in paint chosen as minimum inhibitory concentration (pass level 75% inhibition), or maximum tested where pass not reached. As for the experimental part:
as §1, §2, §3, §4, §5

Setting [2] is: 672 h, visible algal growth vs blank.
Setting [3] is: Stichococcus bacillaris, 672 h, Stichococcus, total conc 500 ppm, 4 weeks, visible algal growth vs blank, read-out: % inhibition.

Where two headings read alike, the source gives them in different places.

Broadly, the inhibition is the share of the control response that was lost under treatment. In turn, `Cc1ccc(NC(=O)N(C)C)cc1Cl` [Chlorotoluron, chlorotoluron] returned an inhibition at 1000 ppm with Chlorella sp. ATCC 7516 (setting [2]) of 100%. The Total conc was found to be 1000 ppm in the assay on Chlorella sp. ATCC 7516 and 500 ppm in assay [1] (Stichococcus, 4 weeks). Also, in assay [1] (setting [3]), the inhibition at 500 ppm was determined as 75%.

`CN(C)C(=O)Nc1ccc(Cl)c(Cl)c1` [Diuron, diuron]: the inhibition at 500 ppm was determined as 90% in the assay with Chlorella sp. ATCC 7516 (672 h, total conc 500 ppm, visible algal growth vs blank) and 95% in assay [1] (Stichococcus bacillaris, 672 h). The Total conc in the assay with Chlorella sp. ATCC 7516 came out at 500 ppm; in assay [1] (Stichococcus, 4 weeks), 500 ppm.

Compound `CC(C)c1ccc(NC(=O)N(C)C)cc1` [Isoproturon, isoproturon] had an inhibition at 1000 ppm with Chlorella sp. ATCC 7516 (setting [2]) of 100%. Also, the Total conc in the assay on Chlorella sp. ATCC 7516 came out at 1000 ppm; in assay [1] (Stichococcus, 4 weeks), 500 ppm. In assay [1] (setting [3]), the inhibition at 500 ppm was found to be 75%.

The % inhibition is the percentage by which the read-out fell short of the control. Low values mean a response near the control, high ones a response far below the control. As to `O=c1[nH]c2c(c(=O)n1C1CCCCC1)CCC2` [Lenacil, 3-cyclohexyl-1,5,6,7-tetrahydrocyclopentapyrimidine-2,4(3H)-dione], the inhibition at 5000 ppm in the assay with Chlorella sp. ATCC 7516 (672 h, total conc 5000 ppm, visible algal growth vs blank) was found to be 45%. The compound also had a Total conc in the assay on Chlorella sp. ATCC 7516 of 5000 ppm. Besides, the “% inhibition” value in the assay with Chlorella sp. ATCC 7516 (total conc 5000 ppm, visible algal growth vs blank) is on record as 50%. Besides, in assay [1] (Stichococcus bacillaris, 672 h), at 2000 ppm the inhibition was 80% and the inhibition at 5000 ppm was 65%.
